These results are taken from ChEMBL document CHEMBL1201862, “PubChem BioAssay data set” (2004).

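In this assay, cells in 96-well plates receive the compound at five concentrations for 48 hours. Endpoints are linearly interpolated between the surrounding concentrations. GI50: concentration for 50% inhibition of growth.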 Calls of active or inactive are those of the source. Cut-off read from the data, not from the text of the source: active = GI50 up to about 1.1 µM and inactive = higher.

By GI50 is commonly meant the concentration at which growth is held to half of that of the control.

What all share (assay): DTP human tumour cell line panel, 48 h
Assay [1] has as its system 786-0.
Assay [2] deals with ACHN.
Assay [3] deals with HCT-15.
For assay [4], the system named is HL-60.
Assay [5] concerns HOP-62.
In assay [6] the test system is HOP-92.
Assay [7] concerns HT-29.
Assay [8] relates to K562.
Assay [9] concerns M14.
Assay [10] deals with Malme-3M.
For assay [11], the system named is OVCAR-3.
The test system of assay [12] is OVCAR-4.
Assay [13] has as its system SF-295.
Assay [14] deals with SF-539.
For assay [15], the system named is SK-MEL-28.
Assay [16] deals with SK-MEL-2.
Assay [17] has as its system SK-MEL-5.
In assay [18] the test system is SNB-75.
Assay [19] deals with UACC-257.

Regarding `COc1cccc(NC(=O)CC(=O)N2N=C(N(CCC#N)c3ccc(Cl)cc3)CC2c2ccccc2)c1` (stereo unspecified), the GI50 is > 100 µM (inactive) in assay [1]; > 100 µM (inactive) in assay [2]; above 100 µM in assay [3]; > 100 µM (inactive) in assay [4]; > 100 µM (inactive) in [5]; > 100 µM (inactive) in [6]. Also, the GI50 in [7], in [8], in assay [9], in assay [10], in assay [11] and in assay [12] was > 100 µM (inactive) throughout. In addition, the GI50 in [13], in assay [14], in [15], in assay [16], in assay [17] and in assay [18] was > 100 µM (inactive) throughout. In addition, in [19], the GI50 was > 100 µM (inactive).

As for `N#CC(C#N)=C1NN=C(Cl)c2ccccc21`, the GI50 in assay [1] was > 100 µM (inactive); in [2], > 100 µM (inactive); in assay [3], above 100 µM; in assay [4] it was 43.2 µM (inactive); in [5], 67.8 µM (inactive); in assay [6], 47.2 µM (inactive). Further, the GI50 was > 100 µM (inactive) in assay [7]; > 100 µM (inactive) in assay [8]; > 100 µM (inactive) in assay [9]; 30.3 µM (inactive) in assay [10]; > 100 µM (inactive) in assay [11]; > 100 µM (inactive) in assay [12]. For the same molecule, the GI50 in assay [13] is > 100 µM (inactive); in [14], 85.5 µM (inactive); in assay [15], 61.8 µM (inactive); in assay [16] it was > 100 µM (inactive); in assay [17] it was > 100 µM (inactive); in [18], 33.9 µM (inactive). Besides, the GI50 in assay [19] was 98.6 µM (inactive).

In the case of `O=C(c1cc(O)ccc1O)c1ccccc1C(Cl)(Cl)Cl`, the GI50 in [1] was > 100 µM (inactive); in assay [2], > 100 µM (inactive); in assay [3], above 100 µM; in assay [4] it was 28.6 µM (inactive); in [5], > 100 µM (inactive); in assay [6] it was 38.8 µM (inactive). Further, the GI50 in [7] is > 100 µM (inactive); in [8] it was 61.8 µM (inactive); in assay [9], 88.7 µM (inactive); in [10], > 100 µM (inactive); in [11] it was 79.1 µM (inactive); in assay [12] it was 68.5 µM (inactive). For the same molecule, the GI50 in assay [13] was 55.7 µM (inactive); in [14] it was > 100 µM (inactive); in assay [16], > 100 µM (inactive); in assay [17], 35.6 µM (inactive); in [18], > 100 µM (inactive); in assay [19], 39 µM (inactive).

Take `CC1CN1c1c(C(=O)/C=C/c2ccccc2)c(-c2ccccc2)nn(C)c1=O` (stereo unspecified): the GI50 is 15.9 µM (inactive) in assay [1]; 17.4 µM (inactive) in assay [2]; 14.1 µM in assay [3]; 17.2 µM (inactive) in [4]; 22 µM (inactive) in [5]; 13.1 µM (inactive) in [6]. The GI50 in assay [7] was 15.7 µM (inactive); in [8], 18.2 µM (inactive); in [9] it was 17.1 µM (inactive); in [10], 19.7 µM (inactive); in assay [11], 18.5 µM (inactive); in assay [12], 16.2 µM (inactive). Moreover, the GI50 in [13] is 22.6 µM (inactive); in [14] it was 16.9 µM (inactive); in assay [15] it was 25.3 µM (inactive); in assay [16], 16.3 µM (inactive); in assay [17], 15.9 µM (inactive); in [18], 18.8 µM (inactive). Also, the GI50 in assay [19] was 18.1 µM (inactive).

As to `CCCCC(C(=O)CCC(=O)Nc1ccc(Cl)cc1)C(=O)C(C)C` (stereo unspecified), the GI50 in assay [1] is > 100 µM (inactive); in assay [2] it was > 100 µM (inactive); in assay [3], above 100 µM; in assay [4] it was > 100 µM (inactive); in [5] it was > 100 µM (inactive); in assay [6], > 100 µM (inactive). The GI50 in assay [7] is > 100 µM (inactive); in assay [8] it was 25.1 µM (inactive); in assay [9], > 100 µM (inactive); in [10], > 100 µM (inactive); in [11], > 100 µM (inactive); in assay [12], > 100 µM (inactive). In addition, the GI50 in assay [13], in [14], in assay [15], in assay [16], in [17] and in assay [18] was > 100 µM (inactive) throughout. Further, in assay [19], the GI50 is > 100 µM (inactive).

For the molecule `N#CC(/C(=N\NC(N)=S)C(=O)NC1C2CC3CC(C2)CC1C3)c1ccc(Cl)cc1` (stereo unspecified), the GI50 is > 100 µM (inactive) in [1]; > 100 µM (inactive) in assay [2]; above 100 µM in assay [3]; > 100 µM (inactive) in assay [4]; > 100 µM (inactive) in assay [5]; > 100 µM (inactive) in [6]. In addition, the GI50 in assay [7], in assay [8], in assay [9], in [10], in assay [11] and in assay [12] was > 100 µM (inactive) in each case. Moreover, the GI50 in assay [13], in assay [14], in [15], in [16], in [17] and in assay [18] was > 100 µM (inactive) throughout. Further, the GI50 in [19] was > 100 µM (inactive).

For the molecule `O=C1NC(Cc2ccccc2)C(=O)N2CCCC12` (stereo unspecified), the GI50 is > 100 µM (inactive) in assay [1]; > 100 µM (inactive) in assay [2]; above 100 µM in assay [3]; > 100 µM (inactive) in [4]; > 100 µM (inactive) in [5]; > 100 µM (inactive) in assay [6]. Also, the GI50 in [7], in assay [8], in assay [9], in assay [10], in assay [11] and in assay [12] was > 100 µM (inactive) each time. The GI50 in assay [13], in [14], in assay [15], in assay [16], in assay [17] and in [18] was > 100 µM (inactive) each time. Besides, the GI50 in assay [19] was > 100 µM (inactive).

As for `COc1cc(/C=C(\C#N)C(=O)c2ccccc2)cc(OC)c1OC`, the GI50 is > 100 µM (inactive) in [1]; > 100 µM (inactive) in assay [2]; above 100 µM in [3]; > 100 µM (inactive) in assay [4]; > 100 µM (inactive) in assay [5]; 83.4 µM (inactive) in assay [6]. In addition, the GI50 in assay [7], in [8], in assay [9], in assay [10], in [11] and in assay [12] was > 100 µM (inactive) throughout. Moreover, the GI50 in assay [13] was > 100 µM (inactive); in assay [14] it was > 100 µM (inactive); in [15], > 100 µM (inactive); in assay [16], > 100 µM (inactive); in assay [17] it was > 100 µM (inactive); in [18], 38.1 µM (inactive). Further, the GI50 in [19] was > 100 µM (inactive).

As for `CCC(=O)N1C(=O)OCC1C(C)C` (stereo unspecified), the GI50 in assay [1] was > 100 µM (inactive); in assay [2], > 100 µM (inactive); in assay [3], above 100 µM; in assay [4], > 100 µM (inactive); in [5], > 100 µM (inactive); in [6] it was > 100 µM (inactive). In addition, the GI50 in [7], in assay [8], in assay [9], in assay [10], in [11] and in [12] was > 100 µM (inactive) throughout. Further, the GI50 in [13], in [14], in assay [16], in assay [17], in assay [18] and in assay [19] was > 100 µM (inactive) in each case.

Regarding `Clc1ccc(/C=C/c2csnn2)cc1`, the GI50 in assay [1] was > 100 µM (inactive); in [2] it was > 100 µM (inactive); in assay [3], above 100 µM; in assay [4], > 100 µM (inactive); in assay [5], > 100 µM (inactive); in assay [6], 27.1 µM (inactive). For the same molecule, the GI50 in [7], in [8], in assay [9], in assay [10], in assay [11] and in assay [12] was > 100 µM (inactive) in each case. Also, the GI50 in assay [13], in assay [14], in assay [15], in assay [16], in assay [17] and in assay [18] was > 100 µM (inactive) each time. In addition, the GI50 in assay [19] was > 100 µM (inactive).

Take `CN1OC2OC(=O)OC2[C@H]1[C@H]1O[C@H](c2ccccc2)OC1(C)c1cc(OC(=O)c2ccccc2)ccc1OC(=O)c1ccccc1` (stereo partly specified): the GI50 in assay [1] is > 50 µM (inactive); in [2], > 50 µM (inactive); in assay [3], above 50 µM; in [4] it was > 50 µM (inactive); in assay [5] it was > 50 µM (inactive); in [6], > 50 µM (inactive). In addition, the GI50 in assay [7], in assay [8], in [9], in assay [10], in assay [11] and in assay [12] was > 50 µM (inactive) throughout. The GI50 in assay [14], in assay [15], in [16], in assay [17], in assay [18] and in assay [19] was > 50 µM (inactive) each time.
